These results are taken from ChEMBL document CHEMBL1201862, “PubChem BioAssay data set” (2004).

Test systems include NCI-H460; SK-MEL-28; CCRF-CEM; IGROV-1; OVCAR-8; HOP-62; MOLT-4; SNB-75; SF-539; COLO 205; LOX IMVI; SN12C; UACC-62; NCI-H23; SNB-19; SF-295; SK-MEL-2; CAKI-1; Malme-3M; OVCAR-3.
What all share (test): NCI anticancer screen, dose series, 48 h

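96-well plates; 48 h exposure; 5 concentrations. Endpoints by linear interpolation between flanking doses. Not reached: highest tested concentration assigned. GI50 is the concentration that inhibits growth by half.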 Activity calls are given as the source filed them. Rule as the data show it: active = GI50 up to about 1.1 µM and inactive = higher.

`O=C(Nc1ccc(F)cc1)C(=O)C(C(=O)c1ccccc1F)C1OC(=O)c2ccccc21` (configuration not stated): the GI50 in the assay on NCI-H460 is 47 µM (inactive); in the assay on SK-MEL-28 it was 87.3 µM (inactive); with CCRF-CEM, 17.6 µM (inactive); with IGROV-1, > 100 µM (inactive); in the assay with OVCAR-8 it was 43 µM (inactive); in the assay on HOP-62, > 100 µM (inactive). The GI50 with MOLT-4 was 14.9 µM (inactive); with SNB-75, 43.7 µM (inactive); with SF-539, 31 µM (inactive); with COLO 205 it was 48.1 µM (inactive); in the assay with LOX IMVI, 35.6 µM (inactive); in the assay on SN12C it was 51.2 µM (inactive). Moreover, the GI50 in the assay on UACC-62 is 39.9 µM (inactive); in the assay with NCI-H23 it was > 100 µM (inactive); in the assay on SNB-19, 39.4 µM (inactive); in the assay on SF-295 it was 68.5 µM (inactive); in the assay on SK-MEL-2 it was 54.1 µM (inactive); in the assay with CAKI-1 it was > 100 µM (inactive).
Regarding `CCOC(=O)C(Cc1c(-c2[nH]c3ccccc3c2CC(NC(=O)CNC(C)=O)C(=O)OCC)[nH]c2ccccc12)NC(=O)CNC(C)=O` (configuration not stated), the GI50 in the assay with NCI-H460 was > 100 µM (inactive); in the assay with SK-MEL-28, 45.4 µM (inactive); with CCRF-CEM, > 100 µM (inactive); with IGROV-1 it was > 100 µM (inactive); with HOP-62, > 100 µM (inactive); with MOLT-4, 53.2 µM (inactive). Moreover, the GI50 is 22.1 µM (inactive) in the assay on SNB-75; 20 µM (inactive) in the assay with Malme-3M; 18.6 µM (inactive) in the assay on COLO 205; 42.3 µM (inactive) in the assay with OVCAR-3; 56 µM (inactive) in the assay with SN12C; 74.3 µM (inactive) in the assay with UACC-62. Besides, the GI50 in the assay on NCI-H23 is > 100 µM (inactive); in the assay on SNB-19 it was > 100 µM (inactive); in the assay with SF-295, > 100 µM (inactive); with SK-MEL-2 it was 18.6 µM (inactive); with CAKI-1, > 100 µM (inactive).
As for `N#C[C@@H](c1nc2ccccc2s1)c1ncccc1[N+](=O)[O-]`, the GI50 with NCI-H460 was 5.62 µM (inactive); in the assay with SK-MEL-28, > 10 µM (inactive); with CCRF-CEM it was > 10 µM (inactive); in the assay on IGROV-1, 5.07 µM (inactive); in the assay on OVCAR-8, 9.06 µM (inactive); with HOP-62 it was 10.4 µM (inactive). In addition, the GI50 in the assay with MOLT-4 is 9.12 µM (inactive); with SNB-75 it was 13.9 µM (inactive); with Malme-3M it was 2.87 µM (inactive); in the assay on COLO 205, 4.31 µM (inactive); with LOX IMVI it was 4.97 µM (inactive); with OVCAR-3, 2.48 µM (inactive). Besides, the GI50 with SN12C is 4.82 µM (inactive); in the assay on UACC-62, 3.21 µM (inactive); with NCI-H23 it was 3.7 µM (inactive); in the assay on SNB-19, 3.94 µM (inactive); in the assay with SF-295 it was 4.1 µM (inactive); in the assay with SK-MEL-2, 4.12 µM (inactive). For the same compound, the GI50 in the assay with CAKI-1 was 19 µM (inactive).
For `Clc1ccc(N/N=C(\c2ccccc2)c2ccccn2)nc1`, the GI50 with SK-MEL-28 was 2.67 µM (inactive); in the assay with CCRF-CEM, < 0.01 µM (active); in the assay on IGROV-1 it was 0.0239 µM (active); in the assay with OVCAR-8, < 0.01 µM (active); in the assay on HOP-62, 1.12 µM (active); in the assay with MOLT-4 it was < 0.01 µM (active). For the same compound, the GI50 is 0.316 µM (active) with SNB-75; < 0.01 µM (active) with Malme-3M; 0.622 µM (active) in the assay with SF-539; < 0.01 µM (active) in the assay with COLO 205; < 0.0121 µM (active) in the assay on OVCAR-3; < 0.01 µM (active) in the assay with SN12C. Besides, the GI50 in the assay on UACC-62 was 0.214 µM (active); in the assay with NCI-H23, 0.0526 µM (active); with SNB-19, 1.17 µM (inactive); in the assay with SF-295, 0.323 µM (active); with SK-MEL-2 it was 3.85 µM (inactive); in the assay with CAKI-1, < 0.01 µM (active).
On to `CC(=O)N(C(=O)CC(=O)N1N=C(C)C(/N=N/c2cccc([N+](=O)[O-])c2)C1=O)c1ccc(Cl)cc1` (configuration not stated), for which the GI50 with SK-MEL-28, in the assay on CCRF-CEM, with IGROV-1, in the assay on OVCAR-8, in the assay with HOP-62 and in the assay with SNB-75 was > 10 µM (inactive) in each case. Also, the GI50 in the assay on Malme-3M, in the assay with SF-539, with COLO 205, with LOX IMVI, with OVCAR-3 and in the assay with SN12C was > 10 µM (inactive) in each case. Further, the GI50 with UACC-62 is > 10 µM (inactive); in the assay on NCI-H23 it was 7.03 µM (inactive); in the assay on SNB-19, > 10 µM (inactive); in the assay on SF-295, > 10 µM (inactive); in the assay on CAKI-1 it was > 10 µM (inactive).
As to `CCOC(=O)c1nc2ccc(OC)cc2c2c1Cc1ccccc1-2`, the GI50 in the assay with NCI-H460, in the assay with SK-MEL-28, with IGROV-1, in the assay with OVCAR-8, in the assay with HOP-62 and in the assay on MOLT-4 was > 100 µM (inactive) each time. Also, the GI50 in the assay on SNB-75 was 81.5 µM (inactive); in the assay with Malme-3M, > 100 µM (inactive); with SF-539, 84.9 µM (inactive); in the assay with COLO 205, > 100 µM (inactive); in the assay with LOX IMVI it was > 100 µM (inactive); in the assay with OVCAR-3, > 100 µM (inactive). Further, the GI50 with SN12C was > 100 µM (inactive); in the assay with UACC-62, 90.2 µM (inactive); in the assay on NCI-H23, > 100 µM (inactive); with SNB-19, > 100 µM (inactive); in the assay with SF-295, > 100 µM (inactive); in the assay on SK-MEL-2 it was > 100 µM (inactive). Also, the GI50 in the assay with CAKI-1 is > 100 µM (inactive).
In the case of `CC1CC=CC(O)C1` (configuration not stated), the GI50 in the assay with NCI-H460, in the assay with SK-MEL-28, in the assay with CCRF-CEM, in the assay with IGROV-1, in the assay on OVCAR-8 and with HOP-62 was > 100 µM (inactive) in each case. Also, the GI50 in the assay with MOLT-4 is > 100 µM (inactive); with SNB-75, > 93.5 µM (inactive); in the assay with Malme-3M, > 100 µM (inactive); in the assay on SF-539, > 100 µM (inactive); with COLO 205, > 100 µM (inactive); with LOX IMVI, > 100 µM (inactive). Also, the GI50 with OVCAR-3, with SN12C, with UACC-62, in the assay on NCI-H23, in the assay with SNB-19 and with SF-295 was > 100 µM (inactive) in each case. In addition, the GI50 in the assay with SK-MEL-2 was > 100 µM (inactive).
With `O=S(O)c1cc(Cl)cc(Cl)c1O`, the GI50 with NCI-H460 is > 100 µM (inactive); in the assay on SK-MEL-28 it was > 100 µM (inactive); with CCRF-CEM it was > 100 µM (inactive); with HOP-62 it was > 100 µM (inactive); with MOLT-4 it was > 100 µM (inactive); in the assay with SNB-75, 75.9 µM (inactive). Further, the GI50 in the assay with Malme-3M, with SF-539, with LOX IMVI, with OVCAR-3, in the assay on SN12C and in the assay with UACC-62 was > 100 µM (inactive) throughout. The GI50 in the assay on NCI-H23, with SNB-19 and in the assay on SK-MEL-2 was > 100 µM (inactive) each time.
Take `NC(CCOCCP(=O)(O)CCOCCC(N)C(=O)O)C(=O)O` (configuration not stated): the GI50 in the assay with NCI-H460, in the assay on SK-MEL-28, in the assay on CCRF-CEM, in the assay with IGROV-1, in the assay with OVCAR-8 and in the assay with MOLT-4 was > 100 µM (inactive) each time. Further, the GI50 with SNB-75, with SF-539, with COLO 205, in the assay with OVCAR-3, with SN12C and in the assay with UACC-62 was > 100 µM (inactive) each time. Further, the GI50 in the assay with NCI-H23, in the assay with SNB-19, in the assay on SF-295, in the assay on SK-MEL-2 and in the assay on CAKI-1 was > 100 µM (inactive) each time.
Regarding `O=S(O)c1cc(Cl)cc(Cl)c1OCc1ccccc1`, the GI50 with NCI-H460, in the assay with SK-MEL-28, in the assay with CCRF-CEM, in the assay with HOP-62, in the assay on MOLT-4 and with SNB-75 was > 100 µM (inactive) throughout. Further, the GI50 in the assay on Malme-3M, in the assay with SF-539, with LOX IMVI, in the assay with OVCAR-3, in the assay with SN12C and in the assay with UACC-62 was > 100 µM (inactive) each time. In addition, the GI50 with NCI-H23, in the assay with SNB-19 and in the assay with SK-MEL-2 was > 100 µM (inactive) throughout.
Take `OCC1C2C=CC(O2)[C@H]1CO` (some centres not stated): the GI50 in the assay with NCI-H460 was > 100 µM (inactive); in the assay on SK-MEL-28 it was > 100 µM (inactive); with CCRF-CEM, 78.7 µM (inactive); in the assay on IGROV-1, > 100 µM (inactive); in the assay with OVCAR-8, > 100 µM (inactive); with HOP-62 it was > 100 µM (inactive). For the same compound, the GI50 with MOLT-4, in the assay on SNB-75, with Malme-3M, with SF-539, with COLO 205 and in the assay with LOX IMVI was > 100 µM (inactive) each time. Besides, the GI50 in the assay on OVCAR-3, in the assay on SN12C, in the assay with UACC-62, with SNB-19, with SF-295 and with CAKI-1 was > 100 µM (inactive) each time.
